This passage reports Kd results from PMC4122235 (Biochimica et biophysica acta, 2014).

Like-named read-outs stand apart in the source and are kept apart here.

In assay [1] the target is CarKam. Briefly: isothermal titration calorimetry, single-site fit. It is filed as binding, Candidatus Arthromitus sp. SFB-mouse-NYU. To be noted: 25 °C, 20 mM Tris pH 7.5, 10 mM magnesium acetate, 250 mM NH4Cl, 10 % glycerol, 6 mM β-mercaptoethanol, no 30S subunit.
For assay [2], the target named is CacKam (Catenulispora acidiphila, UniProt C7Q5P8). Kind of assay: biochemical. The format is binding.
Assay [3] concerns the target TcuKam (Thermomonospora curvata, UniProt D1A6K4). Kind of assay: biochemical. It is filed as binding.
In assay [4] the target is (UniProt K2DC64). Briefly: biochemical.

For `Nc1ncnc2c1ncn2[C@@H]1O[C@H](CSCC[C@H](N)C(=O)O)[C@@H](O)[C@H]1O` [SAH], the Kd turned out to be 4.1 µM in assay [1] (read-out: Kd (μM) / SAH), 2.7 µM in assay [2] and 1.9 µM in assay [3].

Take `C[S+](CC[C@H](N)C(=O)O)C[C@H]1O[C@@H](n2cnc3c(N)ncnc32)[C@H](O)[C@@H]1O` (stereo partly shown) [SAM]: the Kd in assay [1] (read-out: Kd (μM) / SAM) is 24 µM; in assay [4] it was 75 µM; in assay [2] it was 44 µM; in assay [3], 13 µM.
